From EP4721741A1, “PHARMACEUTICAL COMPOSITION, TOPICAL PREPARATION, AND PREPARATION METHOD THEREFOR AND USE THEREOF” (Lynk Pharmaceuticals Co. Ltd., priority 2023, dated 2024)

Assay: Pharmacokinetic (PK) study after topical application: plasma, stratum corneum, epidermis, dermis
Assay type: in vivo, Bama miniature pigs
Procedure: Twenty-four (12 per sex) male and female Bama miniature pigs were divided into 5 groups. The ointment was applied to an estimated 10% of the animal's body surface area.
Animals in group 1 and group 2 received a single topical application of sample 2A and sample 2B, respectively. Plasma, stratum corneum, epidermis, and dermis samples were collected before administration (0 hour, plasma only) and at 0.5, 1, 4, 8, 12, and 24 hours after administration.
Group 3 animals were topically administered ointment sample 2B once daily for 7 consecutive days. Plasma samples were collected on day 1 and day 7 before administration (0) and 0.5, 1, 4, 8, 12, and 24 hours after administration; and on days 3, 4, 5, and 6 before administration (0). […]
Group 5 animals received a single topical application of sample 3a (administered at 25 µL/m^2 with a concentration of 6 mg/mL), and blood and skin samples were collected before administration (0) and at 0.5, 1, 3, and 6 hours after administration. […] The homogenized samples were extracted using three volumes of acetonitrile and quantified against a standard curve utilizing an LC-MS/MS system.
The concentrations of the active pharmaceutical ingredient in plasma, stratum corneum, epidermis, and dermis samples were determined using a high-performance liquid chromatography-[…] (LC-MS/MS) method.

Cc1cnc(Nc2cnn(C3CC(C)(C)OC(C)(C)C3)c2)nc1-c1ccc(C(=O)NCC#N)cc1 [active pharmaceutical ingredient]
accumulation: exposure levels (AUC0-last and Cmax) in the stratum corneum, epidermis, and dermis (7 consecutive days of once-daily topical application of the ointment at 12 µg/cm^2, both sexes): no accumulation
Concentrations in plasma samples (all plasma samples, topical application, Bama miniature pigs): below the lower limit of quantification
